In PMC6269682, “Apocynin: Chemical and Biophysical Properties of a NADPH Oxidase Inhibitor” (Molecules, 2013):

Legend:
[1] = molecular target: T1, human serum albumin (HSA) (Homo sapiens, UniProt P02768); assay: intrinsic fluorescence quenching (Stern-Volmer, apparent Ka), with displacement of fluorescent site probes; type: binding
T1 construct: gene ALB

[2] = molecular target: T1, human serum albumin (HSA); assay: probe fluorescence enhancement and blue shift on binding; displaced by apocynin

T1 sequence (P02768 25-609): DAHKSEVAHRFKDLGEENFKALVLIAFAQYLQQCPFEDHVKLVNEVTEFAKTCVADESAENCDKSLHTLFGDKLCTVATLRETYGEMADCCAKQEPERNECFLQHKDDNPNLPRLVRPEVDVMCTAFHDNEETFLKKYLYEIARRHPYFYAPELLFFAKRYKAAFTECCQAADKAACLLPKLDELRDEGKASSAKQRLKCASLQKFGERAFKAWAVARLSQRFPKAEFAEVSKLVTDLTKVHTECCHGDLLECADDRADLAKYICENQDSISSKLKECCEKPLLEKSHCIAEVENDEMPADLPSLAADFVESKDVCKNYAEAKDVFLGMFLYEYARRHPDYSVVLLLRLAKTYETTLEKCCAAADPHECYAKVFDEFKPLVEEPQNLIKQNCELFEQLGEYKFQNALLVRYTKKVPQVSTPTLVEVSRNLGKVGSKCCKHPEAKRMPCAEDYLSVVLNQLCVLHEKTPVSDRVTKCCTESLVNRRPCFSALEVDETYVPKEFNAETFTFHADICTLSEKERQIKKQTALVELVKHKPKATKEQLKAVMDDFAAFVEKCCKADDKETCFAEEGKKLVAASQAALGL

Row | Kd [1] [µM] | SMILES | probe fluorescence enhancement and blue shift on binding; displaced by apocynin [2]
1 | 45.7 | COc1cc(C(C)=O)ccc1O [APO, 4-hydroxy-3-methoxyacetophenone] | 
2 |  | CN(C)c1cccc2c(S(=O)(=O)NCC(=O)O)cccc12 [DG, dansylglycine] | apocynin was able to displace both fluorescent probes, but a greater effect was observed using DNSA
3 |  | CN(C)c1cccc2c(S(N)(=O)=O)cccc12 [DNSA, 5-(dimethylamino)-1-naphthalenesulfonamide] | binding of these probes to albumin provoked a significant increase in their fluorescence quantum yield
